Experimental data taken from patent US10160785B2, “Antimicrobial peptides and their use for the treatment of topical infections” (priority 2015, dated 2018).
Where a SMILES comes first, the peptide text is derived from it.

Columns and labels:
[1] = test system: Candida dubliniensis ATCC MYA-646; assay: microbe, parasite or virus in culture; format: cell-based; conditions: RPMI broth microdilution, 35° C., 48 hours, visual
How it was run: (§1)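 RPMI 1640/0.165 M MOPS microdilution; peptides 0.625–160 μmol.l^−1 as pipetted; final 5×10^2–2.5×10^3 CFU/ml; 35 °C, static, 48 h; visual MIC = no-growth endpoint.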

[2] = test system: Candida albicans ATCC MYA-2876; assay: microbe, parasite or virus in culture; format: cell-based; conditions: RPMI broth microdilution, 35° C., 48 hours, visual
How it was run: as §1

[3] = test system: Candida glabrata ATCC 2001; assay: microbe, parasite or virus in culture; format: cell-based; conditions: RPMI broth microdilution, 35° C., 48 hours, visual
How it was run: as §1

[4] = test system: Candida glabrata DSY 565; assay: microbe, parasite or virus in culture; format: cell-based; conditions: RPMI broth microdilution, 35° C., 48 hours, visual
How it was run: as §1

[5] = test system: Candida tropicalis ATCC 750; assay: microbe, parasite or virus in culture; format: cell-based; conditions: RPMI broth microdilution, 35° C., 48 hours, visual
How it was run: as §1

[6] = test system: Candida albicans (Olomouc); assay: microbe, parasite or virus in culture; format: cell-based; conditions: RPMI broth microdilution, 35° C., 48 hours, visual
How it was run: as §1

[7] = test system: Candida krusei ATCC 6258; assay: microbe, parasite or virus in culture; format: cell-based; conditions: RPMI broth microdilution, 35° C., 48 hours, visual
How it was run: as §1

[8] = test system: S. aureus (Liberec) biofilm; assay: Bacterial biofilm, remaining metabolic activity (MTT); format: cell-based, Staphylococcus aureus; conditions: remaining metabolic activity of biofilm, 20 h
How it was run: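 Biofilms of S. aureus or P. aeruginosa (Liberec) were grown 24 h at 37° C with shaking in BHI plus 1% glucose from ca. 10^8 CFU/ml inocula. After washing, biofilms were exposed 20 h to peptides at 1–128 μmol.l^−1. Surviving metabolic activity was measured by MTT (40 min, formazan in DMSO, A540) as percent of untreated biofilm, blank-corrected.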

CCCC[C@H](NC(=O)[C@H](CC(C)C)NC(=O)[C@H](CO)NC(=O)[C@H](CO)NC(=O)[C@H](CCCC)NC(=O)[C@@H](NC(=O)CN)[C@@H](C)CC)C(=O)N[C@@H](CCCCN)C(=O)N[C@@H](CCCCN)C(=O)N[C@@H](CC(C)C)C(=O)N[C@@H](CCCCN)C(=O)N[C@@H](CCCCN)C(=O)N[C@H](C(=O)N[C@H](C(=O)N[C@@H](C)C(=O)N[C@@H](CCCCN)C(N)=O)[C@@H](C)CC)[C@@H](C)CC [V] (HELM PEPTIDE1{G.I.[Nle].S.S.L.[Nle].K.K.L.K.K.I.I.A.K.[am]}$$$$V2.0)
Antifungal activity MIC C. dubliniensis ATCC MYA-646 [1]: 26.0 µM
Antifungal activity MIC C. albicans ATCC MYA-2876 [2]: 19.0 µM
Antifungal activity MIC C. glabrata ATCC 2001 [3]: 24.0 µM
Antifungal activity MIC C. glabrata DSY 565 [4]: 44.0 µM
Antifungal activity MIC C. tropicalis ATCC 750 [5]: 1.0 µM
Antifungal activity MIC C. albicans Olomouc [6]: 12.0 µM
Antifungal activity MIC C. krusei ATCC 6258 [7]: 5.0 µM
Metabolic activity (%) S. aureus (Liberec) ([8]; peptide concentration 8 μmol · l^−1): 83.0%
Metabolic activity (%) S. aureus (Liberec) ([8]; peptide concentration 16 μmol · l^−1): 71.0%
Metabolic activity (%) S. aureus (Liberec) ([8]; peptide concentration 32 μmol · l^−1): 49.5%
Metabolic activity (%) S. aureus (Liberec) ([8]; peptide concentration 64 μmol · l^−1): 26.0%
Metabolic activity (%) S. aureus (Liberec) ([8]; peptide concentration 128 μmol · l^−1): 0.0%
